Assay results reported in US20060004088A1, “Furan derivatives for preventing and curing osteoporosis and pharmaceutical compositions containing the same” (OCT INC., priority 2002, published 2006).

System: osteoclast pregenitor cells
Experiment: Inhibition rates of furan derivatives versus osteoclast formation (TRAP staining)
Assay type: cell-based, mice
Conditions: TRAP-positive multinucleated cells, untreated control set as 100%
Protocol: First, bone marrow cells were isolated, as follow. After sacrificing 7-9 week female mice by cervical dislocation, femur and tibia were excised aseptically while removing attached soft tissues. After cutting both ends of long bones, 1 ml of an enzyme solution, containing 0.1% collagenase (Gibco), 0.05% trypsin and 0.5 mM EDTA (Gibco), was injected to the bone marrow cavity at one end using a syringe with a 26-guage needle, and bone marrow was then collected. After shaking the recovered bone marrow for 30 min, bone marrow cells were collected, and cultured in α-minimum essential medium (α-MEM) supplemented with 10% FBS for 24 hrs. Then, non-adherent cells were collected, which are osteoclast pregenitors, aliquotted onto culture plates at a density of 2×10^5 cells per well, and cultured for 8 days in α-MEM supplemented with 20 ng/ml of macrophage-colony stimulating factor (M-CSF, Peprotech, USA) and 30 ng/ml RANKL (Peprotech, USA). During the 8 days of culturing, the cells were treated with the Compound 1. Thereafter, osteoclast formation was investigated by fixing the cultured cells and then carrying out TRAP staining, as described in the following Experimental Example 2.2. In addition, resorption activity of osteoclasts was investigated by measuring the absorption area after removing osteoclasts in cultures in calcium phosphate-coated plates, as described in Experimental Example 2.3, below.
After cell culture, the adherent cells were washed with PBS, and TRAP staining was performed, as follows. After being fixed with citrate-acetate-formaldehyde for 5 min, the cells were incubated for 1 hr in acetate buffer (prewarmed at 37° C., pH 5.0) containing naphthol AS-BI phosphate, fast Garnet GBC and 7 mM tartrate buffer (pH 5.0). TRAP-positive multinucleated cells having 3 or more nuclei were considered as osteoclasts.
Osteoclast pregenitor cells were isolated, and their differentiation to mature osteoclasts was induced, according to the same method as in the Experimental Example 2-1, while treated with each of the furan derivatives of the present invention. According to the same method as in the Experimental Example 2-2, TRAP staining performed, and TRAP-positive multinucleated cells were counted. An inhibition rate of each furan derivative against osteoclast formation was expressed as percentage, wherein the number of stained cells in a control not treated the furan derivative was arbitrarily set as 100% (Tables 14 to 16).

Row | SMILES | Inhibition rate against osteoclast formation, % (0.1 μM) [%] | Inhibition rate against osteoclast formation, % (1 μM) [%] | Inhibition rate against osteoclast formation, % (10 μM) [%]
1 | CCCc1ccc(OCc2ccc(C(=O)Nc3cc(Cl)ccc3Cl)o2)cc1 [Compound 170] | 0 | 0 | 16.31
2 | COc1ccc(C)cc1NC(=O)c1ccc(COc2cccc(Cl)c2)o1 [Compound 171] | 0 | 0 | 0.42
3 | Cc1cc(OCc2ccc(C(=O)Nc3cccc(C)c3C)o2)ccc1Cl [Compound 172] | 0 | 0 | 11.08
4 | Cc1cc(OCc2ccc(C(=O)Nc3ccc(Cl)cc3)o2)ccc1Cl [Compound 173] | 0 | 0 | 8.03
5 | COc1ccccc1OCc1ccc(C(=O)Nc2ccccc2Cl)o1 [Compound 174] | 0 | 0 | 14.11
6 | COc1ccccc1OCc1ccc(C(=O)Nc2ccc(C)c(C)c2)o1 [Compound 175] | 0 | 0 | 33.33
7 | CCCc1ccc(OCc2ccc(C(=O)Nc3ccc(F)cc3F)o2)c(OC)c1 [Compound 176] | 0 | 0 | 15.56
8 | Cc1cc(C)cc(OCc2ccc(C(=O)Nc3ccccc3F)o2)c1 [Compound 177] | 0 | 0 | 11.03
9 | O=C(Nc1ccccc1F)c1ccc(COc2ccc(Cl)cc2)o1 [Compound 178] | 0 | 0 | 14.09
10 | Cc1cccc(C)c1NC(=O)c1ccc(COc2ccc(Cl)cc2)o1 [Compound 179] | 0 | 0 | 34.81
11 | COC(=O)c1ccccc1NC(=O)c1ccc(COc2ccc(C)c(C)c2)o1 [Compound 180] | 0 | 0 | 8.15
12 | O=C(Nc1cc(C(F)(F)F)ccc1Cl)c1ccc(COc2ccc(Cl)cc2)o1 [Compound 181] | 0 | 0 | 56.96
13 | COc1cc([N+](=O)[O-])ccc1NC(=O)c1ccc(COc2ccc(Cl)cc2)o1 [Compound 182] | 0 | 0 | 4.34
14 | O=C(Nc1ccccc1[N+](=O)[O-])c1ccc(COc2ccccc2Cl)o1 [Compound 183] | 0 | 0 | 57.39
15 | O=C(Nc1ccc(F)cc1F)c1ccc(COc2c(F)c(F)cc(F)c2F)o1 [Compound 185] | 0 | 0 | 13.64
16 | Cc1ccc(OCc2ccc(C(=O)Nc3ccc(F)c(F)c3)o2)cc1C [Compound 186] | 0 | 0 | 21.09
17 | CC(=O)Nc1cccc(NC(=O)c2ccc(COc3c(F)c(F)c(F)c(F)c3F)o2)c1 [Compound 187] | – | 37.05 | 36.74
18 | COc1ccc(NC(=O)c2ccc(COc3ccccc3Br)o2)c(OC)c1 [Compound 188] | 0 | 0 | 7.6
19 | COc1ccccc1NC(=O)c1ccc(COc2ccc(C(C)(C)C)cc2)o1 [Compound 189] | 0 | 0 | 48.99
20 | O=C(Nc1ccc(I)cc1)c1ccc(COc2ccccc2Br)o1 [Compound 190] | 0 | 0 | 5.12
21 | O=C(Nc1cccc([N+](=O)[O-])c1)c1ccc(COc2ccc(I)cc2)o1 [Compound 191] | 0 | 0 | 8.06
